Assay results taken from the supplement of paper PMC10307832.

Legend:
Experiment in all cases: relative viability (nuclei count vs DMSO), 5 days (fraction); higher = more cells survive
Sunitinib + Trametinib = compound: CCN(CC)CCNC(=O)c1c(C)[nH]c(/C=C2\C(=O)Nc3ccc(F)cc32)c1C [Sunitinib] + CC(=O)Nc1cccc(-n2c(=O)n(C3CC3)c(=O)c3c(Nc4ccc(I)cc4F)n(C)c(=O)c(C)c32)c1 [Trametinib] (partner 0.02 µM)
Summary of the method: (§1)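 For relative viability, nuclei counts in treated wells were divided by those in vehicle wells. Lung cancer cell lines had been pin-tool dosed in 1536-well plates the day after seeding and cultured for 5 days, then fixed and stained in one step (final 0.05% Triton X-100, 1% formaldehyde, 1 ug/ml Hoechst) and imaged at 4×. Doses were one drug alone or a fixed anchor-drug dose plus five library-drug doses (not always all listed) in √10 steps, and values are duplicate-plate medians.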

Sunitinib + Olaparib = compound: CCN(CC)CCNC(=O)c1c(C)[nH]c(/C=C2\C(=O)Nc3ccc(F)cc32)c1C [Sunitinib] + O=C(c1cc(Cc2n[nH]c(=O)c3ccccc23)ccc1F)N1CCN(C(=O)C2CC2)CC1 [Olaparib] (partner 8 µM)
Summary of the method: as §1

Sunitinib + Phenformin = compound: CCN(CC)CCNC(=O)c1c(C)[nH]c(/C=C2\C(=O)Nc3ccc(F)cc32)c1C [Sunitinib] + N=C(N)NC(=N)NCCc1ccccc1 [Phenformin] (partner 250 µM)
Summary of the method: as §1

Sunitinib + Lapatinib = compound: CCN(CC)CCNC(=O)c1c(C)[nH]c(/C=C2\C(=O)Nc3ccc(F)cc32)c1C [Sunitinib] + CS(=O)(=O)CCNCc1ccc(-c2ccc3ncnc(Nc4ccc(OCc5cccc(F)c5)c(Cl)c4)c3c2)o1 [Lapatinib] (partner 2 µM)
Summary of the method: as §1

| Cell Line | relative viability (Sunitinib + Trametinib; first compound 0.02 µM) | relative viability (Sunitinib + Trametinib; first compound 0.06325 µM) | relative viability (Sunitinib + Trametinib; first compound 0.2 µM) | relative viability (Sunitinib + Trametinib; first compound 0.6325 µM) | relative viability (Sunitinib + Trametinib; first compound 2 µM) | relative viability (Sunitinib + Olaparib; first compound 0.02 µM) | relative viability (Sunitinib + Olaparib; first compound 0.06325 µM) | relative viability (Sunitinib + Olaparib; first compound 0.2 µM) | relative viability (Sunitinib + Olaparib; first compound 0.6325 µM) | relative viability (Sunitinib + Olaparib; first compound 2 µM) | relative viability (Sunitinib + Phenformin; first compound 0.02 µM) | relative viability (Sunitinib + Phenformin; first compound 0.06325 µM) | relative viability (Sunitinib + Phenformin; first compound 0.2 µM) | relative viability (Sunitinib + Phenformin; first compound 0.6325 µM) | relative viability (Sunitinib + Phenformin; first compound 2 µM) | relative viability (Sunitinib + Lapatinib; first compound 0.02 µM) | relative viability (Sunitinib + Lapatinib; first compound 0.06325 µM) | relative viability (Sunitinib + Lapatinib; first compound 0.2 µM) | relative viability (Sunitinib + Lapatinib; first compound 0.6325 µM) | relative viability (Sunitinib + Lapatinib; first compound 2 µM) |
| --- | --- | --- | --- | --- | --- | --- | --- | --- | --- | --- | --- | --- | --- | --- | --- | --- | --- | --- | --- | --- |
| LCLC-103H | 0.612 | 0.692 | 0.629 | 0.728 | 0.719 | 0.69 | 0.839 | 0.787 | 0.75 | 0.817 | 0.354 | 0.343 | 0.352 | 0.365 | 0.33 |  |  |  |  |  |
| NCI-H1944 | 0.401 | 0.423 | 0.457 | 0.437 | 0.43 | 0.39 | 0.414 | 0.473 | 0.43 | 0.447 | 0.183 | 0.206 | 0.214 | 0.203 | 0.199 | 0.648 | 0.932 | 0.997 | 0.849 | 0.964 |
| HOP-62 | 0.376 | 0.364 | 0.389 | 0.374 | 0.379 | 0.453 | 0.374 | 0.449 | 0.472 | 0.63 | 0.614 | 0.713 | 0.745 | 0.661 | 0.698 | 0.961 | 1.09 | 1.01 | 1.01 | 1.1 |
| HCC-827 | 0.555 | 0.61 | 0.558 | 0.613 | 0.618 | 0.722 | 0.696 | 0.622 | 0.648 | 0.597 | 0.366 | 0.401 | 0.439 | 0.403 | 0.291 | 0.191 | 0.198 | 0.198 | 0.222 | 0.215 |
| NCI-H2228 | 0.574 | 0.568 | 0.593 | 0.558 | 0.285 | 0.608 | 0.55 | 0.98 | 0.772 | 0.544 | 0.332 | 0.405 | 0.315 | 0.341 | 0.322 | 1.04 | 1.23 | 1.13 | 1.16 |  |
| UMC-11 | 0.709 | 0.793 | 0.811 | 0.787 | 0.783 | 0.387 | 0.382 | 0.674 | 0.324 | 0.324 | 0.331 | 0.352 | 0.355 | 0.324 | 0.309 | 0.984 |  | 1.07 | 1.03 | 0.967 |
| NCI-H2342 | 0.786 | 0.877 | 0.915 | 0.767 | 0.813 | 0.48 | 0.456 | 0.527 | 0.475 | 0.414 | 0.523 | 0.571 | 0.62 | 0.542 | 0.727 |  |  |  |  |  |
| ABC-1 |  |  |  |  |  | 0.728 | 0.919 | 0.868 | 1.06 | 0.966 | 0.218 | 0.254 | 0.218 | 0.242 | 0.225 | 1.18 | 1.19 | 1.34 | 1 | 1.19 |
| HARA | 0.599 | 0.976 | 0.841 | 0.943 | 0.707 | 0.718 | 0.966 | 0.801 | 0.786 | 0.7 | 0.478 | 0.495 | 0.484 | 0.399 | 0.43 | 0.767 | 0.813 | 0.881 | 0.729 | 0.801 |
| HCC-78 | 0.76 | 0.812 | 0.985 | 0.737 | 0.701 | 0.765 | 0.82 | 0.865 | 0.866 | 0.891 | 0.639 | 0.726 | 0.71 | 0.677 | 0.806 | 0.747 |  | 0.767 |  | 0.893 |
| Calu-6 |  |  |  |  |  | 0.575 | 0.57 | 0.598 | 0.571 | 0.614 |  |  |  |  |  | 1.02 | 1.16 | 1.28 | 1.18 | 1.19 |
| NCI-H1563 |  |  |  |  |  |  |  |  |  |  | 0.661 | 0.707 | 0.738 |  | 0.706 | 0.925 | 0.988 | 1.03 | 1.09 | 1.05 |
| EBC-1 |  |  |  |  |  | 0.758 | 0.689 | 0.727 | 0.726 | 0.739 |  |  |  |  |  | 0.227 | 0.198 | 0.224 | 0.215 | 0.202 |
| ChaGo-K-1 | 0.814 | 0.919 | 0.977 | 0.889 | 0.888 | 0.483 | 0.466 | 0.414 | 0.435 | 0.441 | 0.409 | 0.543 | 0.508 | 0.516 | 0.488 |  |  |  |  |  |
| NCI-H441 | 0.432 | 0.581 | 0.518 | 0.524 | 0.409 | 0.481 | 0.557 | 0.796 | 0.659 | 0.61 | 0.729 | 0.816 | 0.781 | 0.957 | 0.793 |  |  |  |  |  |
| A549 |  |  |  |  |  | 0.282 | 0.326 | 0.348 | 0.484 | 0.383 | 0.166 | 0.214 | 0.148 | 0.126 | 0.155 | 1.03 |  | 1.21 | 1.03 |  |
| NCI-H1299 |  |  |  |  |  | 0.935 | 0.977 | 0.998 | 1.02 | 0.991 |  |  |  |  |  | 0.956 | 0.988 | 0.992 | 0.932 | 0.953 |
